In US9598346B2, “Enantioselective process for the preparation of enantiomers of sex pheromones” (COUNCIL OF SCIENTIFIC AND INDUSTRIAL RESEARCH, priority 2013, dated 2017):
Like-named read-outs stand apart in the source and are kept apart here.

Experiments:
[1] = system: male long tailed mealybugs (P. longispinus); test: Field bioassay of the pheromone enantiomers and the racemate (delta sticky traps); assay type: in vivo, Pseudococcus longispinus; details: for attractiveness to male mealybugs (trap catches): traps 6 d + 11 d
Experimental: FIG. 1 depicts Male long tailed mealybugs caught in traps baited with each of the enantiomers of the pheromone, and the racemate. No mealybugs were caught in solvent treated controls.
(The field trials on vineyards were conducted with the help of Prof. Jocelyn Millar, University of California, Riverside, USA)
A field bioassay of the pheromone was conducted at a nursery in Bonsall, Calif., USA, in a 0.49 ha plot of Ruscus hypoglossum L. (plot coordinates: 33°17′18.36″ N, 117°16′55.61″ W elev 113 m) that was known to be infested with P. longispinus. The plot was divided into seven hoop houses (63 m long×7 m wide), six of which were used in this study. Each house (block) was covered in plastic with open ends. Airflow between houses was not restricted because the plastic cover began 1 m above the plant canopy. Four delta sticky traps were spaced every 12.5 m along a transect within each house, suspended directly above the ruscus canopy. Each trap contained an 11 mm gray rubber septum impregnated with a hexane solution of one of four treatments: solvent control, 5 μg of (S)-(+)-enantiomer, 5 μg of (R)-(−)-enantiomer, 10 μg of the racemate. Treatments were assigned randomly along each transect. Traps were replaced, and treatments were repositioned once after 6 d. Traps remained in place for another 11 d. Trap count data were analyzed by analysis of variance after √(x+0.5) transformation of the data to meet the assumptions of normality and equal variances. Differences among means were tested using Tukey's honestly significant differences (HSD) test. There was no significant interaction between the two sampling periods (date) and the treatments (F=3.23, df=2, 30, and P=0.054). Thus, data for each date were combined for the final analysis. There was both a significant effect of date (F=10.19, df=2, 32, P=0.0032) and treatment (F=130.04, df=2, 32, P<0.0001). Controls were not included in the analysis because their zero values and lack of variance violate the assumptions of ANOVA.

[2] = system: male mealybugs (long-tailed mealybug); details: 25 μg, field trials, cited from earlier work
[3] = 5 μg enantiomer on rubber septum in delta sticky trap, nursery plot of Ruscus hypoglossum

Compound | attractiveness to male mealybugs (trap catches) ([1]; 10 μg of the racemate on rubber septum in delta sticky trap) | attractiveness to male mealybugs and its duration ([2]; listed as racemic form of the pheromone) | attractiveness to male mealybugs and its duration ([2]; listed as racemic pheromone) | attractiveness to male mealybugs (trap catches) [1, 3] | inhibitory effect of the enantiomer on attraction ([1]; inferred from racemate (10 μg) versus pure enantiomer (5 μg)) | attractiveness to male mealybugs (trap catches) ([1]; 5 μg enantiomer on rubber septum in delta sticky trap, nursery plot of Ruscus hypoglossum, listed as (+)1)
CC(=O)OCCC1(C)C=CCC1(C)C (racemic) [racemate (±1), 2-(1,5,5-trimethylcyclopent-2-en-1-yl) ethyl acetate] | as attractive as the pure enantiomer | sufficient to attract mealy bug for three months | highly attractive to male mealybugs for more than three months | – | – | –
CC(=O)OCC[C@]1(C)C=CCC1(C)C [(R)-(−)-enantiomer, (−) 2-(1,5,5-trimethylcyclopent-2-en-1-yl)ethyl acetate] | – | – | – | only slightly more attractive than solvent-treated controls | not inhibitory | –
CC(=O)OCC[C@@]1(C)C=CCC1(C)C [(S)-(+)-enantiomer, (+) 2-(1,5,5-trimethylcyclopent-2-en-1-yl)ethyl acetate] | – | – | – | highly attractive | – | more activity than racemic pheromone
